The test system of assay [1] is TaOR2 + TaORco. The assay is described as follows: two-electrode voltage clamp, Xenopus oocytes. Format: cell-based, Toxorhynchites amboinensis. The following applies: agonist; co-expressed with TaORco; -80 mV; 10^-10 to 10^-4 M.
Assay [2] relates to TaOR10 + TaORco. The assay is described as follows: two-electrode voltage clamp, Xenopus oocytes. In kind it is cell-based, Toxorhynchites amboinensis. Particulars: agonist; co-expressed with TaORco; -80 mV; 10^-10 to 10^-4 M. Background: In two-electrode clamp one electrode senses voltage and the other passes current.

The structures appear in SMILES notation.

Usually EC50 stands for the concentration needed to bring the measured effect to its halfway point.

Take `c1ccc2[nH]ccc2c1` [indole]: the EC50 in assay [1] came to 88 nM; in assay [2] it was 9160 nM.

`Cc1c[nH]c2ccccc12` [skatole]: the half-maximal effective concentration (EC50) was 1380 nM in assay [1] and 87 nM in assay [2].
